These results are taken from US11739098B2 (BRISTOL-MYERS SQUIBB COMPANY, priority 2017, dated 2023).

Each structure is given as a SMILES string.

Holding throughout (assay type): cell-based
The target of one assay is T1, human TLR7 (Homo sapiens, UniProt Q9NYK1).
T1 construct: host or cells: HEK-Blue cells (HEK293-derived reporter line)
T1 sequence (Q9NYK1 27-1049): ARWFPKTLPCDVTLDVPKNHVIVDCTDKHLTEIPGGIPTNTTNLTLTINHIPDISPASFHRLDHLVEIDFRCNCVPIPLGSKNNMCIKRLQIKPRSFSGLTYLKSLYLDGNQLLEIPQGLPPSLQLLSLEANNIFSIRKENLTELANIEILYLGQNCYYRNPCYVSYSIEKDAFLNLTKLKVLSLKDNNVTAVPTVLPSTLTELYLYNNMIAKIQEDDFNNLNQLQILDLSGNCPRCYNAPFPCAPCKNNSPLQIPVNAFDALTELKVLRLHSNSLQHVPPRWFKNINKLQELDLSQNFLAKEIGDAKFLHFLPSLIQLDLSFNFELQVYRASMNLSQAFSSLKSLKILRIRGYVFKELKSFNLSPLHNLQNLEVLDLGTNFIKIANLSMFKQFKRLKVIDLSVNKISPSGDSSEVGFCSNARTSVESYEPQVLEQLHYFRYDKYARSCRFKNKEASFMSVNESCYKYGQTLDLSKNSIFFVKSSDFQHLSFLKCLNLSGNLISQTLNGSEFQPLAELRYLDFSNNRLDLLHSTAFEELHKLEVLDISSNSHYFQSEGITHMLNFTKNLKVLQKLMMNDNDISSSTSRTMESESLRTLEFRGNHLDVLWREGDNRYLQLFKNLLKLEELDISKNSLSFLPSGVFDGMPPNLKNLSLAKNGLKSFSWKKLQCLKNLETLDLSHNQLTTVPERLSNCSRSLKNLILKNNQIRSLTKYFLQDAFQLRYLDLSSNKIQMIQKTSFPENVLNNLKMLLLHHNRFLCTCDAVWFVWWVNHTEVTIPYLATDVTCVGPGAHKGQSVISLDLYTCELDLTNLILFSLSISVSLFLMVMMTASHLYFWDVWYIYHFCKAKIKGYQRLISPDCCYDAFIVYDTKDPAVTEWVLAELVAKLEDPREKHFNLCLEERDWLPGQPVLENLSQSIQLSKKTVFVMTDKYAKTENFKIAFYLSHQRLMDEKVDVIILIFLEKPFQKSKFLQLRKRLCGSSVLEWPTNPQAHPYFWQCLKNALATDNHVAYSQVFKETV
The experiment in a line: TLR7 inhibition reporter assay (HEK-Blue cells, SEAP reporter, gardiquimod stimulation). The note with it: HEK-Blue cells overexpressing human TLR7, SEAP reporter, gardiquimod 7.5 μM. In short, it runs like this: (§1)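 After 22 h at 37 °C, SEAP secretion was measured from human TLR7-, TLR8- or TLR9-expressing HEK-Blue reporter cells given compound (0.05 nM–50 μM) 30 min before agonist: 7.5 μM gardiquimod, 15.9 μM R848 or 5 nM ODN2006 respectively. Percent inhibition referenced to agonist-plus-DMSO and known-inhibitor wells.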
(Reporter assays use an easily measured gene product as a stand-in for the process of interest.)

For another assay, the target named is T2, human TLR9 (Homo sapiens, UniProt Q9NR96).
T2 construct: host or cells: HEK-Blue cells (HEK293-derived reporter line)
T2 sequence (Q9NR96 26-1032): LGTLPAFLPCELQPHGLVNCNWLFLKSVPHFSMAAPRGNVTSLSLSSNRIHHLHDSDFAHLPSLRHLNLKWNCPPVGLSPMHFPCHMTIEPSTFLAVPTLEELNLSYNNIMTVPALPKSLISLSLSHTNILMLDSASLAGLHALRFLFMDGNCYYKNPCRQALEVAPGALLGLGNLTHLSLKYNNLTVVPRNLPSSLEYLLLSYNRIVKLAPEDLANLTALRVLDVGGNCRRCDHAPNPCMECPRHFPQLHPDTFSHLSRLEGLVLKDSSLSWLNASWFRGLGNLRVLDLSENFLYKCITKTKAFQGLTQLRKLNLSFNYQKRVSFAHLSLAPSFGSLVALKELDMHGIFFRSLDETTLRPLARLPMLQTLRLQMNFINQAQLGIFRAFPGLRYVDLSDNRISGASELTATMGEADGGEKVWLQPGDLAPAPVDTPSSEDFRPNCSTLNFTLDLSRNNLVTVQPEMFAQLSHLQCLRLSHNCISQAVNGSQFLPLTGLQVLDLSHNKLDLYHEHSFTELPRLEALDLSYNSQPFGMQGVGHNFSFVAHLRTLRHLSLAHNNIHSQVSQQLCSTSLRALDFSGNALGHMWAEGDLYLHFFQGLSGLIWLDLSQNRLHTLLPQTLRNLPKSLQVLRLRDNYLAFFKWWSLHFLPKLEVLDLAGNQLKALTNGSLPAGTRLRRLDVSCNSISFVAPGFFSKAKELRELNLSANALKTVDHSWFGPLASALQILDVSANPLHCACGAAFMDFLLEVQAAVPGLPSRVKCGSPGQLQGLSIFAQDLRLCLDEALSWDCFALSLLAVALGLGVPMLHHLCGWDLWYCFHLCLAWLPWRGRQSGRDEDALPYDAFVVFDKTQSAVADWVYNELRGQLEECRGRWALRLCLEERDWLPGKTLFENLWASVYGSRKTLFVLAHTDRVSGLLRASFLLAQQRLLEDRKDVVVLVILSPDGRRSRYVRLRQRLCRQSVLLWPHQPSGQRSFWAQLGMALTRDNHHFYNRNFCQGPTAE
The experiment in a line: TLR9 inhibition reporter assay (HEK-Blue cells, SEAP reporter, ODN2006 stimulation). The note with it: HEK-Blue cells overexpressing human TLR9, SEAP reporter, ODN2006 5 nM. Summed up: as §1

In the next assay the target is T3, human TLR8 (Homo sapiens, UniProt Q9NR97).
T3 construct: host or cells: HEK-Blue cells (HEK293-derived reporter line)
T3 sequence (Q9NR97 27-1041): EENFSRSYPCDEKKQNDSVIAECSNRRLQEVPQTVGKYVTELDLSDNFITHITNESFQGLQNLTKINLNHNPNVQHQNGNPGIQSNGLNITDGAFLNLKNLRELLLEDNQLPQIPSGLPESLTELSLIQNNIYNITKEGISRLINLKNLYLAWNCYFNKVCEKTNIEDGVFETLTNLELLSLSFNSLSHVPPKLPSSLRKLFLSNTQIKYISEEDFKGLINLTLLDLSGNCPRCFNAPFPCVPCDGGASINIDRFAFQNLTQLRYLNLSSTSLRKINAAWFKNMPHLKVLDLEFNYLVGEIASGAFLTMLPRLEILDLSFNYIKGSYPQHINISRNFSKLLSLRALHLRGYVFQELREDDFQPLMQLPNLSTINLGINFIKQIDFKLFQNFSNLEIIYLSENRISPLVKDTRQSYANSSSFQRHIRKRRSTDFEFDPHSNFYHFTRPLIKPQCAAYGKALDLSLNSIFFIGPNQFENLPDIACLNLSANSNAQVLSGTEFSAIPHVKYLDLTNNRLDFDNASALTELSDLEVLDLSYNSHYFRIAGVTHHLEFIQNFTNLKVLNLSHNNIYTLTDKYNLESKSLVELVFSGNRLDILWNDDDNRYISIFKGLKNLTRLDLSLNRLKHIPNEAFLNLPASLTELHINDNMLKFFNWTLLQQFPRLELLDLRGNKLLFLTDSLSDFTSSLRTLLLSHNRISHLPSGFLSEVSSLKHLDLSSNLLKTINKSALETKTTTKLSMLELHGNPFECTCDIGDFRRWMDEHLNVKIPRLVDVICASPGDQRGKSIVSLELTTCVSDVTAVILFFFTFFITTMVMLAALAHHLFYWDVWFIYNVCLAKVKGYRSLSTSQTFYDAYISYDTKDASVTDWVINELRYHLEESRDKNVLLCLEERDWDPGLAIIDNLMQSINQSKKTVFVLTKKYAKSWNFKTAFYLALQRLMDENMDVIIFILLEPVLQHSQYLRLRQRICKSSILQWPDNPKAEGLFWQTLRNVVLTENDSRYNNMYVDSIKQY
As to the kind of experiment: TLR8 inhibition reporter assay (HEK-Blue cells, SEAP reporter, R848 stimulation). The note with it: HEK-Blue cells overexpressing human TLR8, SEAP reporter, R848 15.9 μM. Summed up: as §1

Broadly, the IC50 is the concentration that gives 50% inhibition. The low end stands for higher potency, the high end for lower potency. Take `FC(F)Cc1c(-c2ccn3ccnc3c2)[nH]c2ccc(C3CCNCC3)cc12` [Example 189, 7-(3-(2,2-difluoroethyl)-5-(piperidin-4-yl)-1H-indol-2-yl)imidazo[1,2-a]pyridine]: the IC50 is less than 100 nM on human TLR7, less than 100 nM against human TLR9 and 100 to 1000 nM against human TLR8.
For the compound `Cc1cc2nc(-c3[nH]c4ccc(C5CCN(CC(=O)N(C)C)CC5)cc4c3C(C)C)c(F)cn2n1` [Example 438, 2-(4-(2-(6-fluoro-2-methylpyrazolo[1,5-a]pyrimidin-5-yl)-3-isopropyl-1H-indol-5-yl)piperidin-1-yl)-N,N-dimethylacetamide], the IC50 against human TLR7 was in the range of 100 to 1000 nM; against human TLR9, 1000 to 50000 nM; against human TLR8, 100 to 1000 nM.
As for `CC(C)c1c(-c2ccnc3[nH]ncc23)[nH]c2ccc(C3CCN(Cc4cnccn4)CC3)cc12` [Example 903, 4-(3-isopropyl-5-(1-(pyrazin-2-ylmethyl)piperidin-4-yl)-1H-indol-2-yl)-1H-pyrazolo[3,4-b]pyridine], the half-inhibitory concentration (IC50) against human TLR7 is less than 100 nM; against human TLR9, 1000 to 50000 nM; against human TLR8, less than 100 nM.
On to `Cc1cn2cc(-c3[nH]c4ccc(C5CCN(C(=O)C[C@@H](C)O)CC5)cc4c3CC(F)F)ccc2n1` [Example 609, (R)-1-(4-(3-(2,2-difluoroethyl)-2-(2-methylimidazo[1,2-a]pyridin-6-yl)-1H-indol-5-yl)piperidin-1-yl)-3-hydroxybutan-1-one], for which the IC50 is 100 to 1000 nM against human TLR7, 1000 to 50000 nM on human TLR9 and greater than 3130 nM against human TLR8.
The like results for `FC(F)Cc1c(-c2ccc3nccn3c2)[nH]c2ccc(C3CCN(Cc4c[nH]cn4)CC3)cc12` [Example 941, 6-(5-(1-((1H-imidazol-4-yl)methyl)piperidin-4-yl)-3-(2,2-difluoroethyl)-1H-indol-2-yl)imidazo[1,2-a]pyridine] were, in that order, 100 to 1000 nM, 100 to 1000 nM and 100 to 1000 nM.
Turning to `CC(C)c1c(-c2ccc(C#N)c3ncccc23)[nH]c2ccc(C3CCN(CC(=O)N(C)C)CC3)cc12` [Example 370, 2-(4-(2-(8-cyanoquinolin-5-yl)-3-isopropyl-1H-indol-5-yl)piperidin-1-yl)-N,N-dimethylacetamide], the IC50 at human TLR7 was less than 100 nM; against human TLR9 it was 1000 to 50000 nM; against human TLR8, less than 100 nM.
As for `Cc1cc(-c2[nH]c3ccc(C4CCN(C(=O)CN(C)C5CC5)CC4)cc3c2C(C)C)cn2nnnc12` [Example 483, 2-(cyclopropyl(methyl)amino)-1-(4-(3-isopropyl-2-(8-methyltetrazolo[1,5-a]pyridin-6-yl)-1H-indol-5-yl)piperidin-1-yl)ethan-1-one], the IC50 against human TLR7 was less than 100 nM; against human TLR9 it was 1000 to 50000 nM; against human TLR8, less than 100 nM.
With `Cc1c(-c2ncnn3cccc23)[nH]c2ccc(C3CCN(C4CCN(C(C)C)CC4)CC3)cc12` [Example 806, 4-(5-(1′-isopropyl-[1,4′-bipiperidin]-4-yl)-3-methyl-1H-indol-2-yl)pyrrolo[2,1-f][1,2,4]triazine], the IC50 was 1000 to 50000 nM against human TLR7, less than 100 nM against human TLR9 and less than 100 nM against human TLR8.
As for `CCc1c(-c2ccnc3[nH]ccc23)[nH]c2ccc(C3CCN(C4CCN(CC)CC4)CC3)cc12` [Example 837, 4-(3-ethyl-5-(1′-ethyl-[1,4′-bipiperidin]-4-yl)-1H-indol-2-yl)-1H-pyrrolo[2,3-b]pyridine], the IC50 against human TLR7 was less than 100 nM; at human TLR9 it was 100 to 1000 nM; on human TLR8 it was less than 100 nM.
For the compound `COc1cc(-c2[nH]c3ccc(C4CCNCC4)cc3c2C(C)C)cc2nc(C)nn12` [Example 155, 7-(3-isopropyl-5-(piperidin-4-yl)-1H-indol-2-yl)-5-methoxy-2-methyl-[1,2,4]triazolo [1,5-a]pyridine], the IC50 is less than 100 nM against human TLR7, 1000 to 50000 nM against human TLR9 and less than 100 nM against human TLR8.
Take `Cc1ccc(-c2[nH]c3ccc(C4CCN(C(=O)CN(C)C)CC4)cc3c2C(C)C)c2ncnn12` [Example 516, 2-(dimethylamino)-1-(4-(3-isopropyl-2-(5-methyl-[1,2,4]triazolo[1,5-a]pyridin-8-yl)-1H-indol-5-yl)piperidin-1-yl)ethan-1-one]: the IC50 at human TLR7 was less than 100 nM; on human TLR9, 1000 to 50000 nM; on human TLR8, less than 100 nM.
On to `Cc1cc(-c2[nH]c3ccc(C4CCN(C(=O)CN5CCC(F)CC5)CC4)cc3c2C(C)C)cn2nnnc12` [Example 474, 2-(4-fluoropiperidin-1-yl)-1-(4-(3-isopropyl-2-(8-methyltetrazolo[1,5-a]pyridin-6-yl)-1H-indol-5-yl)piperidin-1-yl) ethan-1-one], for which the results for the IC50 against human TLR7, against human TLR9 and at human TLR8 were less than 100 nM, 1000 to 50000 nM and less than 100 nM, respectively.
